Measured values: PubChem BioAssay AID1912 (The Scripps Research Institute Molecular Screening Center, 2009)
Activity calls are given as the source filed them. No rule for the calls is given here.

Molecular target: Luciferin 4-monooxygenase (Photinus pyralis) (UniProt P08659)
Assay: firefly luciferase inhibitor potency, HSP90 counter-screen, dose response, artefact control for HSP90 inhibitor project, biochemical, luminescence (AID 1912)
Conditions: purified firefly luciferase, luminescence inhibition

Luciferin 4-monooxygenase (Photinus pyralis), sequence (P08659 whole entry, looked up): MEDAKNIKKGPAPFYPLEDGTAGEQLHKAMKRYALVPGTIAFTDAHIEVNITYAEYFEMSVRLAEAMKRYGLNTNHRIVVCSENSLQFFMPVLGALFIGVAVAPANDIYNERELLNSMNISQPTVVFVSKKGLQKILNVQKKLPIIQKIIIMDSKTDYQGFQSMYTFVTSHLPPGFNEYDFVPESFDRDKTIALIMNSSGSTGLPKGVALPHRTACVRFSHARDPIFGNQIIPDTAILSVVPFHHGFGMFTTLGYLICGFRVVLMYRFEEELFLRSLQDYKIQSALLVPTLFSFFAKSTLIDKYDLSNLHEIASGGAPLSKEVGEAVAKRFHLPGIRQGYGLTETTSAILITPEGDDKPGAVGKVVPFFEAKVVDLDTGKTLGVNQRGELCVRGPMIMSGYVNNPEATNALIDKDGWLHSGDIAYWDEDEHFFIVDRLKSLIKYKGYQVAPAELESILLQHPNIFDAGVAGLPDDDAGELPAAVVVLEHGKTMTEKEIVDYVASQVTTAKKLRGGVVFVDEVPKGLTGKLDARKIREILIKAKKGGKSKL

Compound | IC50
C=CCc1ccc(OCc2ccc(C(=O)OC)o2)c(OC)c1 | > 60 µM (inactive)
COc1cc(/C=N/Nc2ccc(Cl)c(C(=O)O)c2)ccc1OC(=O)c1ccco1 | > 60 µM (inactive)
O=C(O)c1ccc(S(=O)(=O)/N=C2\C=C(Nc3ccccc3F)C(=O)c3ccccc32)cc1 | > 60 µM (inactive)
COc1ccc(-c2cn3c(C)c(C(=O)Nc4cccc(C)n4)sc3n2)cc1 | inactive
O=C(O)c1cccc(NC(=S)NC(NC(=O)c2cccc([N+](=O)[O-])c2)C(Cl)(Cl)Cl)c1 (stereo not given) | > 60 µM (inactive)
COC(=O)c1ccccc1OCCCOc1ccc(C)cc1OC | > 60 µM (inactive)
CC(=O)CSc1nnc(-c2ccc3c(c2)OCO3)o1 | inactive
Cc1cc2ccccc2n1CCNC(=O)c1ccccc1 | > 60 µM (inactive)
COc1cc(/C=N/Nc2ccc(Cl)c(C(=O)O)c2)ccc1OC(=O)c1ccccc1F | > 60 µM (inactive)
O=C(Cc1ccccc1)N1CCN(S(=O)(=O)c2ccc([N+](=O)[O-])cc2)CC1 | > 60 µM (inactive)
CCCc1ccc(OCc2ccc(C(=O)N3CCSCC3)o2)cc1 | inactive
CCc1ccc(S(=O)(=O)/N=C2\C=C(Nc3cccc(C(=O)O)c3)C(=O)c3ccccc32)cc1 | > 60 µM (inactive)
O=C1C(Nc2ccc(O)cc2)=C/C(=N/S(=O)(=O)c2cccs2)c2ccccc21 | inactive
O=C1C(Nc2ccccc2)=C/C(=N/S(=O)(=O)c2cccs2)c2ccccc21 | inactive
CC(C)Sc1nc(SCC(=O)NCc2ccco2)c2c3c(sc2n1)COC(C)(C)C3 | > 60 µM (inactive)
COC(=O)c1ccc2nc(NC(=O)C3CC3)sc2c1 | > 60 µM (inactive)
COc1cccc(-c2cc3nc4c(c(NCC(C)(C)CN(C)C)n3n2)CCCC4)c1 | > 60 µM (inactive)
Cc1cc(C(=O)Cn2nc(C(=O)O)c3ccccc3c2=O)c(C)n1CC(F)(F)F | > 60 µM (inactive)
COc1ccccc1Nc1nn2c(=O)c3ccc(C(=O)NCc4cccnc4)cc3nc2s1 | > 60 µM (inactive)
CCOC(=O)c1csc(NC(=O)c2ccc(OCC)cc2)n1 | > 60 µM (inactive)
O=C(CN1C(=O)c2ccccc2S1(=O)=O)c1ccc2c(c1)OCCCO2 | inactive
COC(=O)c1ccc(NC(=O)c2ccc(C)cc2)o1 | > 60 µM (inactive)
Cc1[nH]n(-c2ccccc2)c(=O)c1N=Nc1ccc(C(N)=O)cc1 | > 60 µM (inactive)
COC(=O)NCCOC(=O)N(O)c1ccc(Br)cc1 | > 60 µM (inactive)
Cc1ccc2oc(=O)c(/C=C(\O)c3cccs3)nc2c1 | > 60 µM (inactive)
